Experimental data taken from patent US12128028B2, “Heterocyclic sulfonamide derivatives and pharmaceutical uses thereof” (METRION BIOSCIENCES LIMITED, priority 2018, dated 2024).

Biological target: human Kv1.3 (Homo sapiens (Human), UniProt P22001)
Test: Kv1.3 potency evaluation, automated patch clamp electrophysiology (QPatch HT) in CHO-Kv1.3 cells
Type: cell-based
Details: whole-cell QPatch HT, % inhibition of charge, step to +30 mV, four concentrations, N≥3 cells, read-out: hKv1.3 IC50
Text: Biological Assays Kv1.3 Potency Evaluation Electrophysiology Recordings
A proprietary Chinese hamster ovary cell line stably expressing exogenous human a-subunits of Kv1.3 (CHO-Kv1.3) channel, validated biophysically and pharmacologically in house, was used to assess the ability of test compounds to block Kv1.3 currents using automated patch clamp electrophysiology. The QPatch HT system (Sophion Bioscience A/S, Denmark) was used with the conventional whole-cell configuration. This system is an automated, chip-based planar patch clamp device allowing for up to 48 parallel independent experiments in one experimental assay run. Cells are added to each well and drawn by suction onto a small aperture to obtain a Gigaohm seal between the cell membrane and treated silicon surface, and whole-cell recordings initiated after access is achieved by suction and/or voltage pulses. The QPatch HT uses static perfusion, whereby a small volume of recording solution or drug is added to a reservoir on the chip and the solution perfuses across the cell through quartz-lined microfluidic channels; this solution is removed by capillary action when the next sample application is made.
CHO-Kv1.3 cells were prepared for experiments by dissociation from T175 cell culture flasks using trypsin-EDTA (0.05%), cells were kept in serum free media in the cell hotel on board the QPatch HT. These cells were sampled, washed and re-suspended in extracellular recording solution by the QPatch HT immediately before application to the recording well site on the chip. Experiments were performed using the following solutions; extracellular solution contained (in mM); 150 NaCl, 10 KCl, 1 MgCl2, 3 CaCl2), 10 Glucose and 10 HEPES (pH 7.4, NaOH) and intracellular solution contained (in mM); 20 KCl, 120 KF, 10 HEPES, 10 EGTA, 5 ATP (pH 7.2, KOH).
The potency (Inhibitory Concentration 50%, IC50) of synthesized compounds against Kv1.3 was determined from concentration-response relationships established by cumulatively applying four escalating concentrations of test compound to an individual cell and a minimum of N≥3 individual cells of data per compound were used to generate the IC50 value.
On achieving the whole-cell configuration; two additions of vehicle (0.1-0.3% DMSO v/v) were applied to each cell in two bolus additions with a two minute recording period between each addition (four minutes total recording time). Following the vehicle period, four concentrations of test sample were applied as two bolus additions per test concentration at two minute intervals, and the effects on current measured during the four minute recording period.
Currents were elicited using a single step voltage protocol. From a holding potential of −80 mV the cell is depolarised to +30 mV (500 ms) resulting in an outward current before finally repolarising the cell by returning to the holding potential. The command voltage was applied at a frequency of 0.067 Hz throughout the duration of the experiment. For each sweep of the voltage protocol membrane current and the passive properties of the individual cells were recorded by QPatch assay software (version 5.2). Cursors were placed to calculate the charge (integral of the current recorded during cursor interval) between 2-490 ms (0.4-99%) of the 500 ms step to +30 mV.
The % inhibition of charge for each test concentration application period was calculated as the reduction in mean charge at the end of each concentration test period relative to the charge value measured at the end of the control (i.e. vehicle) period. Sigmoidal concentration response curves (four parameter logistic curve) were fitted to the % inhibition rom which the IC50 was determined. Curve fits were constrained at 0 and 100%.

Sequence of human Kv1.3 (P22001 whole entry): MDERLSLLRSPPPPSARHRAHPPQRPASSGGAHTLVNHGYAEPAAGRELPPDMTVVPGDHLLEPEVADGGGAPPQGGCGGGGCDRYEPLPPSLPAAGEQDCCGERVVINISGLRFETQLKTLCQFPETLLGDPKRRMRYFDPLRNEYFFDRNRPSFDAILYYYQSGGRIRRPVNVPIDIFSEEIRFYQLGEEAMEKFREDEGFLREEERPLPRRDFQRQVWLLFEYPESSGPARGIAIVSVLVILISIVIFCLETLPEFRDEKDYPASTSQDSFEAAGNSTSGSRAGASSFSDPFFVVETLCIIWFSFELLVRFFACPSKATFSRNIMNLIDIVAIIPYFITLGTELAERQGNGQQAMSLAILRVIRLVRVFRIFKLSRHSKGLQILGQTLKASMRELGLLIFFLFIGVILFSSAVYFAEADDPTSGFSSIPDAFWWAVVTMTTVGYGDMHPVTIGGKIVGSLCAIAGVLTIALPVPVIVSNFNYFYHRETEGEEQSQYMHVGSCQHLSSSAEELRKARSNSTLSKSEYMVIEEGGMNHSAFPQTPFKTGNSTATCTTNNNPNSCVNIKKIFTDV

Compound	IC50 [nM]
CC1(C)N=C(C23CC(N(Cc4ccc(Cl)cc4)S(=O)(=O)N4CCCC4)(C2)C3)N[C@H]1C(=O)NCCC(F)(F)F (mixture of isomers) [Example 43]	46
C[C@H]1CC(F)(F)CN1C(=O)[C@@H]1NC(C23CC(N(Cc4ccc(Cl)c(F)c4)S(=O)(=O)c4ccccc4)(C2)C3)=NC1(C)C (mixture of isomers) [Example 44]	46
CC1(C)N=C(C23CC(N(Cc4ccc(Cl)cc4)S(=O)(=O)c4ccccc4)(C2)C3)N[C@H]1C(=O)NC1CC(C(F)F)C1 (mixture of isomers) [Example 45]	46
CCCS(=O)(=O)N(Cc1ccc(Cl)c(Cl)c1)C12CC(C3=NC(C)(C)[C@H](C(=O)NCC(C)(C)C(F)(F)F)N3)(C1)C2 (mixture of isomers) [Example 46]	47
CC1(C)N=C(C23CC(N(Cc4ccc(Cl)c(Cl)c4)S(=O)(=O)c4ccccc4)(C2)C3)N[C@H]1C(=O)NCC1CC(F)(F)C1 (mixture of isomers) [Example 47]	47
CC1(C)N=C(C23CC(N(Cc4ccc(Cl)cc4)S(=O)(=O)c4ccccn4)(C2)C3)N[C@H]1C(=O)NCCC(F)(F)F (mixture of isomers) [Example 48]	48
CC1(C)N=C(C23CC(N(Cc4ccc(Cl)cc4)S(=O)(=O)c4ccccc4)(C2)C3)N[C@H]1C(=O)NCC(C)(C)C(F)(F)F (mixture of isomers) [Example 49]	48
CC(C)(F)CNC(=O)[C@@H]1NC(C23CC(N(Cc4ccc(Cl)c(Cl)c4)S(=O)(=O)CCC(F)F)(C2)C3)=NC1(C)C (mixture of isomers) [Example 50]	48
CC1(C)N=C(C23CC(N(Cc4ccc(Cl)cc4)S(=O)(=O)c4ccccc4)(C2)C3)N[C@H]1C(=O)NCC1CC1(F)F (mixture of isomers) [Example 51]	48
CC1(C)N=C(C23CC(N(Cc4ccc(Cl)cc4)S(=O)(=O)c4cccc(Cl)c4)(C2)C3)N[C@H]1C(=O)NCCC(F)(F)F (mixture of isomers) [Example 52]	49
CC(C)(C)CNC(=O)[C@@H]1NC(C23CC(N(Cc4ccc(Cl)c(F)c4)S(=O)(=O)c4ccccc4)(C2)C3)=NC1(C)C (mixture of isomers) [Example 53]	49
CC(C)CS(=O)(=O)N(Cc1ccc(Cl)cc1)C12CC(C3=NC(C)(C)[C@H](C(=O)NCCC(F)(F)F)N3)(C1)C2 (mixture of isomers) [Example 54]	50
CC1(C)N=C(C23CC(N(Cc4ccc(Cl)c(F)c4)S(=O)(=O)c4ccccc4)(C2)C3)N[C@H]1C(=O)N1CC(F)(F)C1 (mixture of isomers) [Example 55]	50
CC1(C)N=C(C23CC(N(Cc4ccc(Cl)c(F)c4)S(=O)(=O)c4ccccc4)(C2)C3)N[C@H]1C(=O)NCC1CC1 (mixture of isomers) [Example 56]	50
CC1(C)N=C(C23CC(N(Cc4ccc(Cl)c(F)c4)S(=O)(=O)c4ccccc4)(C2)C3)N[C@H]1C(=O)N1CCC2(CC2)C1 (mixture of isomers) [Example 57]	50
CN(CC(C)(C)F)C(=O)[C@@H]1NC(C23CC(N(Cc4ccc(Cl)c(Cl)c4)S(=O)(=O)c4ccccc4)(C2)C3)=NC1(C)C (mixture of isomers) [Example 58]	50
CC1(C)N=C(C23CC(N(Cc4ccc(Cl)cc4)S(=O)(=O)c4cccc(F)c4)(C2)C3)N[C@H]1C(=O)NCCC(F)(F)F (mixture of isomers) [Example 59]	51
CC1(C)N=C(C23CC(N(Cc4ccc(Cl)c(F)c4)S(=O)(=O)c4ccccc4)(C2)C3)N[C@H]1C(=O)NC1CCC1 (mixture of isomers) [Example 60]	51

Compound	IC50 [nM]
CC1(C)N=C(C23CC(N(Cc4ccc(Cl)c(F)c4)S(=O)(=O)c4ccccc4)(C2)C3)N[C@H]1C(=O)N1CC(F)(F)C(F)(F)C1 (mixture of isomers) [Example 61]	51
CC1(C)N=C(C23CC(N(Cc4ccc(Cl)c(Cl)c4)S(=O)(=O)c4ccccc4)(C2)C3)N[C@H]1C(=O)NCCC(F)(F)F (mixture of isomers) [Example 62]	52
CC1(C)N=C(C23CC(N(Cc4ccc(Cl)c(F)c4)S(=O)(=O)c4ccccc4)(C2)C3)N[C@H]1C(=O)NCC1CC(F)(F)C1 (mixture of isomers) [Example 63]	52
C[C@@H]1CCN(C(=O)[C@@H]2NC(C34CC(N(Cc5ccc(Cl)c(F)c5)S(=O)(=O)c5ccccc5)(C3)C4)=NC2(C)C)C1 (mixture of isomers) [Example 64]	52
CC1(C)N=C(C23CC(N(Cc4ccc(F)c(Cl)c4)S(=O)(=O)c4ccccc4)(C2)C3)N[C@H]1C(=O)NCCC(F)(F)F (mixture of isomers) [Example 65]	53
CC1(C)N=C(C23CC(N(Cc4ccc(Cl)cc4)S(=O)(=O)c4ccc(Cl)cc4)(C2)C3)N[C@H]1C(=O)NCCC(F)(F)F (mixture of isomers) [Example 66]	53
CC1(C)N=C(C23CC(N(Cc4ccc(Cl)cc4)S(=O)(=O)CCC4CC4)(C2)C3)N[C@H]1C(=O)NCCC(F)(F)F (mixture of isomers) [Example 67]	53
CC1(C)N=C(C23CC(N(Cc4ccc(Cl)c(F)c4)S(=O)(=O)c4ccccc4)(C2)C3)N[C@H]1C(=O)NC1CC1 (mixture of isomers) [Example 68]	55
CN(CC1CC1(F)F)C(=O)[C@@H]1NC(C23CC(N(Cc4ccc(Cl)c(F)c4)S(=O)(=O)c4ccccc4)(C2)C3)=NC1(C)C (mixture of isomers) [Example 69]	55
CC1(C)N=C(C23CC(N(Cc4ccc(Cl)cc4)S(=O)(=O)c4cccc(C#N)c4)(C2)C3)N[C@H]1C(=O)NCCC(F)(F)F (mixture of isomers) [Example 70]	56
CC1(C)N=C(C23CC(N(Cc4ccc(Cl)c(F)c4)S(=O)(=O)c4ccccc4)(C2)C3)N[C@H]1C(=O)N1CCCC12CCC2 (mixture of isomers) [Example 71]	57
CC1(C)N=C(C23CC(N(Cc4ccc(Cl)c(Cl)c4)S(=O)(=O)CCC(F)F)(C2)C3)N[C@H]1C(=O)NC12CC(C1)C2 (mixture of isomers) [Example 72]	57
C[C@H](NC(=O)[C@@H]1NC(C23CC(N(Cc4ccc(Cl)c(F)c4)S(=O)(=O)c4ccccc4)(C2)C3)=NC1(C)C)C(F)(F)F (mixture of isomers) [Example 73]	58
CC(F)(F)CCS(=O)(=O)N(Cc1ccc(Cl)c(Cl)c1)C12CC(C3=NC(C)(C)[C@H](C(=O)NC45CC(C4)C5)N3)(C1)C2 (mixture of isomers) [Example 74]	58
CC1(C)N=C(C23CC(N(Cc4ccc(Cl)c(F)c4)S(=O)(=O)c4ccccc4)(C2)C3)N[C@H]1C(=O)NC1CC1C(F)(F)F (mixture of isomers) [Example 75]	59
CC1(C)N=C(C23CC(N(Cc4ccc(Cl)cc4)S(=O)(=O)c4ccccc4)(C2)C3)N[C@H]1C(=O)N1CCC(F)(F)CC1 (mixture of isomers) [Example 76]	60
CC1(C)N=C(C23CC(N(Cc4ccc(Cl)c(F)c4)S(=O)(=O)c4ccccc4)(C2)C3)N[C@H]1C(=O)N1C2CCC1CC(F)(F)C2 (mixture of isomers) [Example 77]	60
CN(C(=O)[C@@H]1NC(C23CC(N(Cc4ccc(Cl)c(F)c4)S(=O)(=O)c4ccccc4)(C2)C3)=NC1(C)C)C1CC(C(F)F)C1 (mixture of isomers) [Example 78]	60
